Experimental findings from patent US20260193264A1, “BENZOYPARAZINE PYRAZINES AND THEIR USES” (FOGHORN THERAPEUTICS INC., priority 2022, published 2026) are described below.

The structures appear in SMILES notation. Where only a bound is given, the exact number is not on record here.

In assay [1] the target is T1, HiBiT-BRM fusion protein in stable HeLa cell line (Homo sapiens, UniProt P51531).
T1 construct: expressed in transfected cells
Kind of assay: HiBiT-BRM cell-based degradation assay (Nano-Glo HiBiT Lytic Detection, 24 h). Details: DC50: scale not given here. The conditions noted are these: HeLa HiBiT-BRM cells; for DC50: read-out: BRM HiBit Degradation IC50; for BRM HiBit Degradation Maximum (%): top dose 30 μM. An outline of the steps: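 Stable HiBiT-BRM HeLa cells were treated with 10-point 3-fold serial dilutions (30 μM final top dose, duplicate) for 24 h, then lysed with LgBiT-containing detection reagent and luminescence read. Degradation % was normalised to DMSO (high control) and 2 μM reference BRM/BRG1 degrader (low control).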

Assay [2] has as its target T2, HiBit-BRG1 fusion protein in stable HeLa cell line expressing HiBit-BRG1 and LgBit (Homo sapiens, UniProt P51532).
T2 construct: expressed in transfected cells
Kind of assay: HiBiT-BRG1 cell-based degradation assay (Nano-Glo HiBiT, 24 h). The conditions noted are these: HeLa HiBit-BRG1/LgBit cells; for Dmax: top dose 30 μM, read-out: BRG1 HiBit Degradation Maximum (%). An outline of the steps:
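Stable HeLa line co-expressing HiBiT-BRG1 and LgBiT, compound-treated 24 h; luminescence read after Nano-Glo HiBiT lytic reagent. % degradation normalised between DMSO (high control) and 2 μM reference BRM/BRG1 degrader (low control).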
Background: The HiBiT peptide binds its large partner to form an active luciferase.

T1 sequence (P51531 whole entry, the tested form may be a part): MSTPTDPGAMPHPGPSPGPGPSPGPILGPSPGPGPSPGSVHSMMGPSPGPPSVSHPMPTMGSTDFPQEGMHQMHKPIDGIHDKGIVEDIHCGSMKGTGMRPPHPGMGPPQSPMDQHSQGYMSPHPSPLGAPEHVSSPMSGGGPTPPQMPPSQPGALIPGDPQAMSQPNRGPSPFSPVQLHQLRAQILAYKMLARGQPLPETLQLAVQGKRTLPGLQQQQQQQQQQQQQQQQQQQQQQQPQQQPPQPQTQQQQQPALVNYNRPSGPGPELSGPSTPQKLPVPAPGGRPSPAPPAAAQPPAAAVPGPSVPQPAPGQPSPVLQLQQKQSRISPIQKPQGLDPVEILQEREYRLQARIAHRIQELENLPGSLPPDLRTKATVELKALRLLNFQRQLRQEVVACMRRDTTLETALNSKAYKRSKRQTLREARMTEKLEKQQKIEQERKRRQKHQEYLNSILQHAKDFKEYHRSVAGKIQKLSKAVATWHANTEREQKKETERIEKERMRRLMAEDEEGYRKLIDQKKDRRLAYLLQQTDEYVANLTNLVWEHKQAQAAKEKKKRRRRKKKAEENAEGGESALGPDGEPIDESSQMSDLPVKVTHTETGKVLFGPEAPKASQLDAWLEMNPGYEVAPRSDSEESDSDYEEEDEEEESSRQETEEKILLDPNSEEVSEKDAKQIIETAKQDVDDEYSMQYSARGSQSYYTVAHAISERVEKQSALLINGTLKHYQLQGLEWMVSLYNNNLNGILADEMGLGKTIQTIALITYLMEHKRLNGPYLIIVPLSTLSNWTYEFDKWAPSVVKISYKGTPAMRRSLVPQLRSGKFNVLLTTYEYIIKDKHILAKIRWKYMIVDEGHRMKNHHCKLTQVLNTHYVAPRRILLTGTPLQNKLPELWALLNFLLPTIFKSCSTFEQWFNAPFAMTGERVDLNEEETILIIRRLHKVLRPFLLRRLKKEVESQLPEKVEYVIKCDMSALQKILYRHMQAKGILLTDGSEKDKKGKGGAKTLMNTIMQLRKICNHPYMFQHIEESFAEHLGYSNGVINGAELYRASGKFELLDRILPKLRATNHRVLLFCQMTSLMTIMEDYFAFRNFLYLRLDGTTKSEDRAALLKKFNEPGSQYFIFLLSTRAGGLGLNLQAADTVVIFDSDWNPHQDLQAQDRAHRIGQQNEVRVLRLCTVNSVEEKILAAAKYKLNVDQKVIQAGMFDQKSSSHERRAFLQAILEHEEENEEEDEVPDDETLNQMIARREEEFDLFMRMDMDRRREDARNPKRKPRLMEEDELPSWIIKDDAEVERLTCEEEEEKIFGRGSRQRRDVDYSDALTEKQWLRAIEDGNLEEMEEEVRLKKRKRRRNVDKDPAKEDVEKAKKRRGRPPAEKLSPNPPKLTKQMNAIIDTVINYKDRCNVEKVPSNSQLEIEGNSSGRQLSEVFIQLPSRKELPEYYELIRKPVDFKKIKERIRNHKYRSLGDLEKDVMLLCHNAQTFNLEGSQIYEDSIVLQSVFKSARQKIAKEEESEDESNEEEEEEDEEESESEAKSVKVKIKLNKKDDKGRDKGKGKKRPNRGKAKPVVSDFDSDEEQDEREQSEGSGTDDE
T2 sequence (P51532 whole entry, the tested form may be a part): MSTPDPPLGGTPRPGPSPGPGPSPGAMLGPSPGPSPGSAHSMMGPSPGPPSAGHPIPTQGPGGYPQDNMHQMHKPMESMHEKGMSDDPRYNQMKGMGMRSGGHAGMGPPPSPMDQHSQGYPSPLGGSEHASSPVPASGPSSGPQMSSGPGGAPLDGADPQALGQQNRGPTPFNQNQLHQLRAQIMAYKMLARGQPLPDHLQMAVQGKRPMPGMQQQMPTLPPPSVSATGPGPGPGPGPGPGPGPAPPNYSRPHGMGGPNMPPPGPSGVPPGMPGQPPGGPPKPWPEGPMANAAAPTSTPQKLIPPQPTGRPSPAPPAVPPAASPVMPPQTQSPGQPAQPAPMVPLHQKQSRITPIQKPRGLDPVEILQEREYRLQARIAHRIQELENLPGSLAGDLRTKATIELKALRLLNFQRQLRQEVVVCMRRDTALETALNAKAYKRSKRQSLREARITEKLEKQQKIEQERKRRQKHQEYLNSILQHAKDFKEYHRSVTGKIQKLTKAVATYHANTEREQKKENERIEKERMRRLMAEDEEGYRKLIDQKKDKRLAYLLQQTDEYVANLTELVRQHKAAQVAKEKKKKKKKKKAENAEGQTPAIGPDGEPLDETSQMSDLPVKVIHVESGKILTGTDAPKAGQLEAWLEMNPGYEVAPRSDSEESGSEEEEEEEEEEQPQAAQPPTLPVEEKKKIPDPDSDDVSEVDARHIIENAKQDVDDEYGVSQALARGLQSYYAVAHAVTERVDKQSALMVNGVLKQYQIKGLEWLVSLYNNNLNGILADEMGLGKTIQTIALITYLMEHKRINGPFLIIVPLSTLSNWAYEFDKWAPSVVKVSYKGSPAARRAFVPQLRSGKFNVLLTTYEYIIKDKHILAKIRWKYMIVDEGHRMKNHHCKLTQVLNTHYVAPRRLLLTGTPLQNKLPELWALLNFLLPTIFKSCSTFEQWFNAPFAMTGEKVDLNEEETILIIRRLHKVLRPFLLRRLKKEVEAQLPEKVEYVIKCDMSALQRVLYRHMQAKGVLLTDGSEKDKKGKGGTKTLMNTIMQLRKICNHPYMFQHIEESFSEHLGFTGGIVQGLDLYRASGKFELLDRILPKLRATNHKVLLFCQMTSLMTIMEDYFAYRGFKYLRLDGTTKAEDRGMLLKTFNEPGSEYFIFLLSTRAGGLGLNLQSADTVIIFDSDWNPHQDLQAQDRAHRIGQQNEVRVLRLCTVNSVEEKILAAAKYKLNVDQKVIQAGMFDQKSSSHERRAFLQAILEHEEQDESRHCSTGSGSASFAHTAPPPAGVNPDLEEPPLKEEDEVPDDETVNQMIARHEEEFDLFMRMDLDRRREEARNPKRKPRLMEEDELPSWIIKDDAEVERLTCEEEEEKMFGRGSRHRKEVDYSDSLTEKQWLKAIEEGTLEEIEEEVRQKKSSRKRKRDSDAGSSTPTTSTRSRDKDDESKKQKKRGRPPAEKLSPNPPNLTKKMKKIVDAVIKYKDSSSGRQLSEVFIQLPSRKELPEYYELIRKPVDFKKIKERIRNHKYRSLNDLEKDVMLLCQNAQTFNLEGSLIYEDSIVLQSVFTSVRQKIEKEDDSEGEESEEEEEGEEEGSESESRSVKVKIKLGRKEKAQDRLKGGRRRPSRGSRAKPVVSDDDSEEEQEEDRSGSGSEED

With `CC(C)[C@@H](C(=O)N1C[C@H](O)C[C@H]1C(=O)N[C@@H](C)c1ccc(F)cc1)c1cc(N2CC3(CC(c4cc5nnc(-c6ccccc6O)cc5cc4C(F)F)C3)C2)no1` [Compound 283], in assay [1], the DC50 was less than 10 nM and the “BRM HiBit Degradation Maximum (%)” value is recorded as “A (“A” indicates maximum degradation ≥75%)”. The Dmax in assay [2] is less than 50%.

On to `C#Cc1ccc([C@H](C)NC(=O)[C@@H]2C[C@@H](O)CN2C(=O)[C@@H](c2cc(N3CC4(CN(c5ccc6cc(-c7ccccc7O)nnc6c5)C4)C3)no2)C(C)C)c(Cl)c1` [Compound 284], for which, in assay [1], the DC50 was less than 10 nM and the “BRM HiBit Degradation Maximum (%)” value is recorded as “A (“A” indicates maximum degradation ≥75%)”. In addition, the Dmax in assay [2] was less than 50%.

`Cc1ncsc1-c1ccc([C@H](C)NC(=O)[C@@H]2C[C@@H](O)CN2C(=O)C(C(C)C)n2cc(N3C4CCC3CN(c3ccc5nnc(-c6ccccc6O)cc5c3)C4)nn2)cc1` (stereo partly shown) [Compound 285]: in assay [1], the DC50 was less than 10 nM and the “BRM HiBit Degradation Maximum (%)” value is reported as “A (“A” indicates maximum degradation ≥75%)”. Besides, the DC50 in assay [2] (read-out: BRMG1 HiBit Degradation IC50) is greater than 10 nM. For the same compound, in assay [2], the Dmax is greater than 75%.
